Experiments:
Type in all cases: biochemical
Abl = target: T1, Abl (Homo sapiens, UniProt P00519); experiment: AlphaScreen kinase assay, Abl; details: read-out: activity toward kinase Abl, IC50
T1 construct: P1121. pET-SPEC BI-PTP Abl G227-V515-X; His6 (N); made in house; host or cells: E. coli (PTP1B co-expressed)
T1 sequence (P00519 with tags, fused parts or gaps): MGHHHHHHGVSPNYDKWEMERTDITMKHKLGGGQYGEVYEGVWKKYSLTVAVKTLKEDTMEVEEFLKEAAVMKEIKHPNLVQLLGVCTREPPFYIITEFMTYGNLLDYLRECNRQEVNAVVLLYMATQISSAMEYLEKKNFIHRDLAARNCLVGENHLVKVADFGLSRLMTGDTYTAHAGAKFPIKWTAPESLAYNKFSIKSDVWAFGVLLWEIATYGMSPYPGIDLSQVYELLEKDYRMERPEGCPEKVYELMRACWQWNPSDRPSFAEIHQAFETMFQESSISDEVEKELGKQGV
Outline: (§1)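 Uses phospho-specific antibody on acceptor beads plus streptavidin donor beads capturing biotinylated peptide substrate; singlet oxygen from donor excites nearby acceptor. Inhibitors tested in 8-point, 1:3 titrations starting from 20 mM DMSO solutions.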

FGFR1 = target: T2, FGFR1 (Homo sapiens, UniProt P11362, C488A/C584S); experiment: AlphaScreen kinase assay, FGFR1; details: read-out: IC50, activity toward kinase FGFR
T2 construct: P1351.pET N6 BI-PTP FGFR A458-E765-X C488A, C584S; made in house; host or cells: E. coli (PTP1B co-expressed)

Fms = target: T3, Fms (Homo sapiens, UniProt P07333); experiment: AlphaScreen kinase assay, Fms; details: read-out: IC50, activity toward kinase Fms
T3 construct: purchased Upstate Biotechnology

Flt4 = target: T4, Flt4 (Homo sapiens, UniProt P35916); experiment: AlphaScreen kinase assay, Flt4; details: read-out: IC50, activity toward kinase Flt4
T4 construct: purchased ProQinase GmbH (Freiburg, Germany)
Outline: as §1

B-Raf V600E = target: T5, B-Raf V600E (Homo sapiens, UniProt P15056, V600E); experiment: AlphaScreen kinase assay, B-Raf V600E; details: read-out: IC50, activity toward kinase B-Raf V600E
T5 construct: P4254. pFastBacBD-CDC37 BRAF D437-K722-X, V600E; His6 with pFastBac HT leader (TEV site) (N); made in house; host or cells: Sf9 (baculovirus; chaperone CDC37 co-expressed)

Jnk3 = target: T6, Jnk3 (Homo sapiens, UniProt P53779); experiment: AlphaScreen kinase assay, Jnk3; details: read-out: IC50, activity toward kinase Jnk3
T6 construct: purchased Upstate Biotechnology

B-Raf = target: T7, B-Raf (Homo sapiens, UniProt P15056); experiment: AlphaScreen kinase assay, B-Raf; details: read-out: IC50, activity toward kinase B-Raf
T7 construct: purchased Upstate Biotechnology

Kdr = target: T8, Kdr (Homo sapiens, UniProt P35968); experiment: Z'-Lyte FRET kinase assay (Invitrogen), Kdr; details: read-out: IC50, activity toward kinase Kdr
T8 construct: purchased Invitrogen (assay run by Invitrogen)

Pyk2 = target: T9, Pyk2 (Homo sapiens, UniProt Q14289); experiment: AlphaScreen kinase assay, Pyk2; details: read-out: IC50, activity toward kinase Pyk2
T9 construct: purchased Upstate Biotechnology

c-Raf-1 = target: T10, c-Raf-1 (Homo sapiens, UniProt P04049); experiment: AlphaScreen kinase assay, c-Raf-1; details: read-out: IC50, activity toward kinase c-Raf-1
T10 construct: purchased Upstate Biotechnology

Flt1 = target: T11, Flt1 (Homo sapiens, UniProt P17948); experiment: AlphaScreen kinase assay, Flt1; details: read-out: IC50, activity toward kinase Flt1
T11 construct: P1826.pETN6 BI-PTP FLT1 M799-D1165-X WT; His6 (N); made in house; host or cells: E. coli (PTP1B co-expressed)
T11 sequence (P17948 with tags, fused parts or gaps): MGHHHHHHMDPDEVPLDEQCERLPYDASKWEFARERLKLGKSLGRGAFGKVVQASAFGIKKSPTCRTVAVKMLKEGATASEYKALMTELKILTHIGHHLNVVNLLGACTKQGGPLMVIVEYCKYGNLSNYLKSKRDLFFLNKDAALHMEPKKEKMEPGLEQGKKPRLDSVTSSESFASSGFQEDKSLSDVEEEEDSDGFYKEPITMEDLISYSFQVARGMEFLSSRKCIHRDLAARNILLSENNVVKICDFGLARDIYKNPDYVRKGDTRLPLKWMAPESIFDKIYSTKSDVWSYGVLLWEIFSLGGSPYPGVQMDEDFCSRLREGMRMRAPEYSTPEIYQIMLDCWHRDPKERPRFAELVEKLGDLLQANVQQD

Ret = target: T12, Ret (Homo sapiens, UniProt P07949); experiment: AlphaScreen kinase assay, Ret; details: read-out: IC50, activity toward kinase Ret
T12 construct: P1378.pET-SF BI-PTP RET H661-R1012 HIS; made in house
T12 sequence (P07949 with tags, fused parts or gaps): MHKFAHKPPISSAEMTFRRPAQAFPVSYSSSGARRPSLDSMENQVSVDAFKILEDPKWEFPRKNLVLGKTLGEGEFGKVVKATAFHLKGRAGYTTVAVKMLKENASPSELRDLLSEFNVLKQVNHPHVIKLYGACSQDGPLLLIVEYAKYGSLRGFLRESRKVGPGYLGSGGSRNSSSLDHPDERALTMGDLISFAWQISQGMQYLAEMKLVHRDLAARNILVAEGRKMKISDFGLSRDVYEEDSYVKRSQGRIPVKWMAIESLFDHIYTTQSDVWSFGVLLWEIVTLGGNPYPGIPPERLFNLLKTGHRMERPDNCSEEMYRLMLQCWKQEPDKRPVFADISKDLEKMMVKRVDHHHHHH

Kit = target: T13, Kit (Homo sapiens, UniProt P10721); experiment: AlphaScreen kinase assay, Kit; details: read-out: IC50, activity toward kinase Kit
T13 construct: P1332.N6 BI PTP KIT M552-K948-X COD; His6 (N); made in house; host or cells: E. coli (PTP1B co-expressed)
From the text: (§2) AlphaScreen assay was used to screen additional kinases. The assay is similarly dependent on the phosphorylation of a peptide substrate. In this assay, an antibody that recognizes phosphorylated substrate is bound to an acceptor bead. The peptide substrate is attached to biotin, which binds to a donor head that contains streptavidin. Thus phosphorylated substrate is bound by antibody and streptavidin, bringing the donor and acceptor heads into close proximity when kinase is not inhibited. The donor produces singlet oxygen which results in emission from the acceptor when they are in close proximity. Conversely, when kinase is inhibited, the donor and acceptor beads are not associated and the emission from the acceptor is reduced.
(§3) AlphaScreen assays were done using compounds dissolved in DMSO to a concentration of 20 mM. The compounds were diluted accordingly to the desired final concentrations in each sample well, using 1:3 serial dilution for a total of 8 concentration points. Plates were prepared such that each kinase reaction is 20 μl in 1× kinase buffer, 5% DMSO and 10 μM ATP. After incubation of the kinase reaction for 1 hour at room temperature, 5 μl of donor beads in stop buffer (50 mM EDTA in 1× kinase buffer) was added, the sample was mixed and incubated for 20 minutes at room temperature before adding 5 μl of acceptor beads in stop buffer. The samples were incubated for 60 minutes at room temperature and the signal per well was read on AlphaQuest reader.

Jnk1 = target: T14, Jnk1 (Homo sapiens, UniProt P45983); experiment: AlphaScreen kinase assay, Jnk1; details: read-out: IC50, activity toward kinase Jnk1
T14 construct: purchased Upstate Biotechnology

Src = target: T15, Src (Homo sapiens, UniProt P12931); experiment: AlphaScreen kinase assay, Src; details: read-out: IC50, activity toward kinase Src
T15 construct: P1144. pET-N6 BI-PTP SRC V86-L536-X; made in house
From the text: as §2, §3

MAP2K1 = target: T16, MAP2K1 (Homo sapiens, UniProt Q02750); experiment: Z'-Lyte FRET kinase assay (Invitrogen), MAP2K1; details: read-out: IC50, activity toward kinase MAP2K1
T16 construct: purchased Invitrogen (assay run by Invitrogen)
From the text: For example, direct radiometric, indirect FRET or AlphaScreen assays may be used to assess the level of phosphorylation of a substrate in the presence of test compounds in order to determine the inhibitory affect of the compound on the kinase. […] For these assays, compounds of the invention were screened by Invitrogen using Z′-Lyte™ kinase assay.
Briefly, the Invitrogen kinase assay involves use of a specific peptide substrate optimized for each kinase, containing a fluorophore at each end that make up the FRET pair. The peptide sensitivity to proteolytic cleavage depends on phosphorylation of the peptide. Non-phosphorylated peptide is cleaved by a protease while peptide phosphorylated by the kinase is not cleaved. Cleavage of the peptide disrupts the FRET between the donor (coumarin) and acceptor (fluorescein) fluorophores, resulting in an increase in the ratio of donor emission to acceptor emission. The emission ratio of coumarin to fluorescein is used to assess the reaction progress. […] Thus, the assay involves a kinase reaction in the presence of varying concentrations of a given compound, a development reaction with site specific protease, and detection of the fluorescent emission ratio of coumarin and fluorscein. […] Reaction conditions for each kinase are determined to provide optimal reaction times, incubation temperature, kinase and ATP concentrations. Test samples are made up in 1× kinase buffer (50 mM HEPES pH 7.5, 50 mM MgCl2, 5 mM EGTA, 0.05% BRIJ-35) and compound at desired concentration prepared in DMSO such that the final DMSO is 1%. […] All kinase except for MAP2K1 were at 10 μM ATP in the kinase reaction, while MAP2K1 was at 100 μM. Samples are mixed and the kinase reaction is incubated 1 hour at room temperature, after which 5 μl of development solution is added and mixed. After incubation for another 1 hour at room temperature, 5 μl of stop reagent is added to each sample and mixed. The fluorescence signals are measured to determine the emission ratio.

Zap70 = target: T17, Zap70 (Homo sapiens, UniProt P43403); experiment: AlphaScreen kinase assay, Zap70; details: read-out: IC50, activity toward kinase Zap70
T17 construct: P1868.pFastBac1 ZAP70 D327-G606 HIS, WT; His7 (HHHHHHH) (C); made in house
T17 sequence (P43403 with tags, fused parts or gaps): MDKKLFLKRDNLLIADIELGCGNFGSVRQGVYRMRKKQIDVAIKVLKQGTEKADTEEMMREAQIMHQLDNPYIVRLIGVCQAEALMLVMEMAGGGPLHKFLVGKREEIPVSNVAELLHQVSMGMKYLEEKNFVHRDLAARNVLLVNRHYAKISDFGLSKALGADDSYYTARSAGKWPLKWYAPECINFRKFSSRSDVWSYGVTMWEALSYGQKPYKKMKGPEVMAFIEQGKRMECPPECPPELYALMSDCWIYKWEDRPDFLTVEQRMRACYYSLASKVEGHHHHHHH
Outline: as §1

Stk6 = target: T18, Stk6 (Homo sapiens, UniProt O14965); experiment: Z'-Lyte FRET kinase assay (Invitrogen), Stk6; details: read-out: IC50, activity toward kinase Stk6
T18 construct: purchased Invitrogen (Carlsbad, Calif.), screening service
T18 sequence (O14965 1-403): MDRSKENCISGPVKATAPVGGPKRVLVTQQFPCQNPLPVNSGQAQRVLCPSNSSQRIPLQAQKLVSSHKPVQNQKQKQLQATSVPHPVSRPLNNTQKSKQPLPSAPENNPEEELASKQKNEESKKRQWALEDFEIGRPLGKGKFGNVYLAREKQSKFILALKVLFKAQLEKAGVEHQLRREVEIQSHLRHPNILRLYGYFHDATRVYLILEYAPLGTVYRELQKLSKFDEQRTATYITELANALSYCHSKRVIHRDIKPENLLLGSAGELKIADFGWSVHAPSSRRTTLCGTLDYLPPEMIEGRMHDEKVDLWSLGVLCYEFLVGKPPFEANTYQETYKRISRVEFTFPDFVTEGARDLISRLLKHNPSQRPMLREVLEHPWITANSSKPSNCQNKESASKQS

Met = target: T19, Met (Homo sapiens, UniProt P08581); experiment: AlphaScreen kinase assay, Met; details: read-out: IC50, activity toward kinase Met
T19 construct: P1818.pETN6 BI-PTP MET G1056-G1364-X WT; His6 (N); made in house; host or cells: E. coli (PTP1B co-expressed)
Outline: as §1

Btk = target: T20, Btk (Homo sapiens, UniProt Q06187); experiment: Z'-Lyte FRET kinase assay (Invitrogen), Btk; details: read-out: IC50, activity toward kinase Btk
T20 construct: purchased Invitrogen (assay run by Invitrogen)

Jnk2 = target: T21, Jnk2 (Homo sapiens, UniProt P45984); experiment: AlphaScreen kinase assay, Jnk2; details: read-out: IC50, activity toward kinase Jnk2
T21 construct: purchased Roche Protein Expression Group (Indianapolis, IN)
Outline: as §1

Measured: IC50

T4 sequence (P35916 25-1363): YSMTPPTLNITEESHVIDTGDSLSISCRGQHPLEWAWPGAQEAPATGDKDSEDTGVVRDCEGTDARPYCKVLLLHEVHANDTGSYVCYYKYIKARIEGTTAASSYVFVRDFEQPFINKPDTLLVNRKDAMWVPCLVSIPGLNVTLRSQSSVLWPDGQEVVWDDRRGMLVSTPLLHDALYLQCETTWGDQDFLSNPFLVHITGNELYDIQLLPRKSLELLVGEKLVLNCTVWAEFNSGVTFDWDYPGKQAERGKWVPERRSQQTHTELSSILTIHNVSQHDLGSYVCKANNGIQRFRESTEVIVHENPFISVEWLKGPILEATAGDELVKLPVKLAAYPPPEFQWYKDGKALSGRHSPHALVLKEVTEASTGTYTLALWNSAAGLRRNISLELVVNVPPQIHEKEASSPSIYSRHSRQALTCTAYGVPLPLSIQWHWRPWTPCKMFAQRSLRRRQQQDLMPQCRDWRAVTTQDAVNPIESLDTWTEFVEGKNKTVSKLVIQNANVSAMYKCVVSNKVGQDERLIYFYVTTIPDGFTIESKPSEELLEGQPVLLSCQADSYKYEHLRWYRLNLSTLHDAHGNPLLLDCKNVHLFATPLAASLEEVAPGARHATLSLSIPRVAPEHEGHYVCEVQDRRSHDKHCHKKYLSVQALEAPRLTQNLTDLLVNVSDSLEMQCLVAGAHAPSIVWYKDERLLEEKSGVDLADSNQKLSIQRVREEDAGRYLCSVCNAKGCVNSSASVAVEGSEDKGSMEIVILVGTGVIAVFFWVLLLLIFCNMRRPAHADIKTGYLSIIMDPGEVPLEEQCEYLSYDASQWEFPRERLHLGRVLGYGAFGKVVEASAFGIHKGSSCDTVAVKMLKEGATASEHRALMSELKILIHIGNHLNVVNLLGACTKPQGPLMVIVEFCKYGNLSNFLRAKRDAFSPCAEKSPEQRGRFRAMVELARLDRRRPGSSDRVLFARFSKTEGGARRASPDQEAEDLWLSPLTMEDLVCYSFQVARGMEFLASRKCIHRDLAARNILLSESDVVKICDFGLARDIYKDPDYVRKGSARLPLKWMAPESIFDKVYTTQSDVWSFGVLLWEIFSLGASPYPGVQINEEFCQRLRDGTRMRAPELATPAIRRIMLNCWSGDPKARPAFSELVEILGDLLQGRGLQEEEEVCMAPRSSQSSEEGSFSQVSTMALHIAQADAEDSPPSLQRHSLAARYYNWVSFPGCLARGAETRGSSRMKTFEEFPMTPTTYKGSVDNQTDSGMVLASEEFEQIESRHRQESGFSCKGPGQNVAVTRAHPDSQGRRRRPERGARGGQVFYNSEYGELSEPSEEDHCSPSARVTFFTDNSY
T8 sequence (P35968 20-1356): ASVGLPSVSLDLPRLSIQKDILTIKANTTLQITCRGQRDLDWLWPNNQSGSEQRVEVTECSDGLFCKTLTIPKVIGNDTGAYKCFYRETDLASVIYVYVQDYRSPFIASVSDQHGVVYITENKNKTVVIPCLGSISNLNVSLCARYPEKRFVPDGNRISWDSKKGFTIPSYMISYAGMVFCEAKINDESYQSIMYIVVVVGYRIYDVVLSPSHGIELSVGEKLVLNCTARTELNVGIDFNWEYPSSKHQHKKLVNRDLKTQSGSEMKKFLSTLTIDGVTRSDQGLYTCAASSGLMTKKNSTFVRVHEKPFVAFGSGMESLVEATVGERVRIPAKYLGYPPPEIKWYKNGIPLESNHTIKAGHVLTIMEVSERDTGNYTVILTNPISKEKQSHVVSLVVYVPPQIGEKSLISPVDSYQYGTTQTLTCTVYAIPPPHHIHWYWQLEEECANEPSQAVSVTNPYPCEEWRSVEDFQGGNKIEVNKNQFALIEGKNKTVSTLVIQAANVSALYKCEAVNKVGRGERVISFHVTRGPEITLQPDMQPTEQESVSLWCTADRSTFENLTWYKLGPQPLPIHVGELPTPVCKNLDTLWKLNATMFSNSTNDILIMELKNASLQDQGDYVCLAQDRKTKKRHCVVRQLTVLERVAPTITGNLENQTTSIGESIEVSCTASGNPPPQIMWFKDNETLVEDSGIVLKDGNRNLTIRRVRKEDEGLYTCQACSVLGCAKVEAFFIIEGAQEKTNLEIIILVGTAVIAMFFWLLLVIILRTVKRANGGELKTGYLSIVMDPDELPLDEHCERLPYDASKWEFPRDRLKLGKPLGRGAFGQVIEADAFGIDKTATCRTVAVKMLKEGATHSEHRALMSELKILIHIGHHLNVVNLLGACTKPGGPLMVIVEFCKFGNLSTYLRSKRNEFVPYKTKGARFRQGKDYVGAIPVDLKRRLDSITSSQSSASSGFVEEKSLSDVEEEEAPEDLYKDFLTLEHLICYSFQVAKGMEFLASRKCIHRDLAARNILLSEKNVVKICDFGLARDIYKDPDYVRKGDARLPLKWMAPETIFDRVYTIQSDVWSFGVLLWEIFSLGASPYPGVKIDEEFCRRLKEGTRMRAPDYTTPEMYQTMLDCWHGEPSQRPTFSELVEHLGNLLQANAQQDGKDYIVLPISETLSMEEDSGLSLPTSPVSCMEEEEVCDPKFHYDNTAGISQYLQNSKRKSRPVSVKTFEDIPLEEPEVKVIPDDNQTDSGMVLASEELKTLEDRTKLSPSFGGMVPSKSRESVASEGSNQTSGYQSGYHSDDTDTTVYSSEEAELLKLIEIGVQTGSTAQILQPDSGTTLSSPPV
T16 sequence (Q02750 whole entry): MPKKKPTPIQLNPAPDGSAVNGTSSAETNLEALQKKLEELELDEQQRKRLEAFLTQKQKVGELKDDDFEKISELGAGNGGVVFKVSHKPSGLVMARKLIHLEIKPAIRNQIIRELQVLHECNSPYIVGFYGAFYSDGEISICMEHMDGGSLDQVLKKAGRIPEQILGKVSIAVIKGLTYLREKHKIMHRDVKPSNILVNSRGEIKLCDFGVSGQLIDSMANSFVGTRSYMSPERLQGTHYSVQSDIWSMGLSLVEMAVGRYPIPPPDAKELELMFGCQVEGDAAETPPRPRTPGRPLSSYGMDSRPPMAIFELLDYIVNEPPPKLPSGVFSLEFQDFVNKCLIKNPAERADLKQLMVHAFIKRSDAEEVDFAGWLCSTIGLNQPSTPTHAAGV
T13 sequence (P10721 with tags, fused parts or gaps): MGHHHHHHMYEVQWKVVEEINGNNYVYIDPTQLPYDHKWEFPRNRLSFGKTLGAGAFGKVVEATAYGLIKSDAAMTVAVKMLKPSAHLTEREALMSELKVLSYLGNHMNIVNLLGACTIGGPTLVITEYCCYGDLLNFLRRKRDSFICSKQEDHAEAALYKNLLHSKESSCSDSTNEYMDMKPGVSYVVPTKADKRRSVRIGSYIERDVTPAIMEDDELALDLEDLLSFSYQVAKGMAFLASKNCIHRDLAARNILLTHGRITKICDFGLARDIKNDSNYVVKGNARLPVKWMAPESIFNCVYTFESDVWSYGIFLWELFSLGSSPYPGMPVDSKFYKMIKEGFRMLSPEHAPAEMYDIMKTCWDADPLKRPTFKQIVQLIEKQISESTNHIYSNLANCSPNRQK
T2 sequence (P11362 458-765 C488A/C584S): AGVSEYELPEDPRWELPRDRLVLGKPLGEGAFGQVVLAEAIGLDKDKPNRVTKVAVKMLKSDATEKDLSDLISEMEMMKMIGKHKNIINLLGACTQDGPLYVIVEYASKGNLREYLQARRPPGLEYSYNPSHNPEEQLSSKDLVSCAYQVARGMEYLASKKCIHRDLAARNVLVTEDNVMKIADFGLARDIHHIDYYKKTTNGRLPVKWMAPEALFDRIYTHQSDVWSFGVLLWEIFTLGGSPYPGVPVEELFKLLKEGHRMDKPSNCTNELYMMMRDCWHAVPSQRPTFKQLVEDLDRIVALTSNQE
T6 sequence (P53779 whole entry): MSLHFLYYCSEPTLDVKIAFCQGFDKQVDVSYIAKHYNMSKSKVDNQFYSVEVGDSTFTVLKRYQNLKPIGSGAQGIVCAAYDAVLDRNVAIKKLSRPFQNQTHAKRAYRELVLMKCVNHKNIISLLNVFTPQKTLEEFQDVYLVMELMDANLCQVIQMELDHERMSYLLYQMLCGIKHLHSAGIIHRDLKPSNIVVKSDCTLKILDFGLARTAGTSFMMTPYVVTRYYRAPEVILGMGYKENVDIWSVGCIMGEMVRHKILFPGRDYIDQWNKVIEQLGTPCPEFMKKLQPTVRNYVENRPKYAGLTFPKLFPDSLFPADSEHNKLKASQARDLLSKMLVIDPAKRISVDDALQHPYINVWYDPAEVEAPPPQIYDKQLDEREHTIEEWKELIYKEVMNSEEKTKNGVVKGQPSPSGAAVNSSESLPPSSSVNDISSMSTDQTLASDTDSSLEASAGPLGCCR
T5 sequence (P15056 with tags, fused parts or gaps V600E): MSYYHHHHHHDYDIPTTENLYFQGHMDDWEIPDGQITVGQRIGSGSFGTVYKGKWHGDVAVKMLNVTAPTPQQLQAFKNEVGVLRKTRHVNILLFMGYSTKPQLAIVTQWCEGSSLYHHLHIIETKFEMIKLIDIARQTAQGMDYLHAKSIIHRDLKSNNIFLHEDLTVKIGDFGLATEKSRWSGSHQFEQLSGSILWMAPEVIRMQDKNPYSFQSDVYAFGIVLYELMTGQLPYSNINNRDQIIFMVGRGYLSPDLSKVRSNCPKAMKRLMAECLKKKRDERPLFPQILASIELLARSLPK
T19 sequence (P08581 with tags, fused parts or gaps): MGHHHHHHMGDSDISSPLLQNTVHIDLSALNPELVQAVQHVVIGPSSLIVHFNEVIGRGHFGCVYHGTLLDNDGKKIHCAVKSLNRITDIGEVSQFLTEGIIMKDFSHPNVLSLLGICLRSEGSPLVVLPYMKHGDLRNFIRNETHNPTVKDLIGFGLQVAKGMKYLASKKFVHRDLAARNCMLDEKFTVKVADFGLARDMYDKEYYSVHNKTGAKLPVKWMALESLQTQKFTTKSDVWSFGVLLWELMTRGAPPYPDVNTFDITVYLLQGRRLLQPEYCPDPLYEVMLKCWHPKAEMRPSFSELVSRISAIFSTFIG

O=C(c1cc(O)ccc1F)c1c[nH]c2ncc(-c3cccnc3)cc12 [Compound P-0559]
≤ 10 µM: Abl | FGFR1 | Fms | Flt4 | B-Raf V600E | Jnk3 | B-Raf | Kdr | Pyk2 | c-Raf-1 | Flt1 | Ret | Kit | Jnk1 | Src

O=C(CCc1c[nH]c2ncccc12)NCc1ccccc1 [Compound P-0331]
≤ 10 µM: MAP2K1

Nc1cccc(-c2cnc3[nH]cc(C(=O)c4ccccc4F)c3c2)c1 [Compound P-0624]
≤ 10 µM: Abl | Zap70 | FGFR1 | Flt4 | B-Raf V600E | Jnk3 | Kdr | Flt1 | Ret | Kit | Jnk1 | Src

Cc1cc(C(=O)c2c[nH]c3ncc(-c4cccc(N)c4)cc23)nn1C [Compound P-0117]
≤ 10 µM: Flt4 | Jnk3 | Kdr | Stk6 | Met | Ret | Kit

O=C(c1ccccc1F)c1c[nH]c2ncccc12 [Compound P-0158]
≤ 10 µM: FGFR1 | Kdr | MAP2K1 | Ret

COc1ccc(F)c(C(=O)c2c[nH]c3ncc(-c4cccc(NC(C)=O)c4)cc23)c1 [Compound P-0325]
≤ 10 µM: Btk | FGFR1 | Fms | Flt4 | B-Raf V600E | Met | Flt1 | Ret | Kit

O=C1NCc2ccccc2N1Cc1c[nH]c2ncccc12 [Compound P-0194]
≤ 10 µM: Kdr | Flt1 | MAP2K1

COc1cc(O)cc(Cc2c[nH]c3ncc(-c4ccsc4)cc23)c1 [Compound P-0594]
≤ 10 µM: Abl | FGFR1 | Flt4 | Jnk2 | B-Raf V600E | Jnk3 | B-Raf | Ret | Kit

O=C(NCc1cccc(Cl)c1)NCc1c[nH]c2ncccc12 [Compound P-0568]
≤ 10 µM: MAP2K1

COc1cccc(Cc2c[nH]c3ncc(-c4cccs4)cc23)c1 [Compound P-0142]
≤ 10 µM: Abl | FGFR1 | Flt4 | Jnk2 | Kdr | Pyk2 | Ret | Kit

S=C(NCc1c[nH]c2ncccc12)Nc1cccc(Cl)c1 [Compound P-0337]
≤ 10 µM: Kdr | Flt1 | MAP2K1

Reference: patent US8415469B2, “Compounds and methods for kinase modulation, and indications therefor” (Plexxikon Inc., priority 2005, dated 2013)
